Data published in ChEMBL document CHEMBL1201862, “PubChem BioAssay data set” (2004).
Activity calls are given as the source filed them.

Key:
Estrogen receptor = molecular target: T1, Estrogen receptor (Homo sapiens, UniProt P03372);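 further: potency for inhibiting coactivator peptide recruitment to the receptor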
T1 sequence (P03372 whole entry): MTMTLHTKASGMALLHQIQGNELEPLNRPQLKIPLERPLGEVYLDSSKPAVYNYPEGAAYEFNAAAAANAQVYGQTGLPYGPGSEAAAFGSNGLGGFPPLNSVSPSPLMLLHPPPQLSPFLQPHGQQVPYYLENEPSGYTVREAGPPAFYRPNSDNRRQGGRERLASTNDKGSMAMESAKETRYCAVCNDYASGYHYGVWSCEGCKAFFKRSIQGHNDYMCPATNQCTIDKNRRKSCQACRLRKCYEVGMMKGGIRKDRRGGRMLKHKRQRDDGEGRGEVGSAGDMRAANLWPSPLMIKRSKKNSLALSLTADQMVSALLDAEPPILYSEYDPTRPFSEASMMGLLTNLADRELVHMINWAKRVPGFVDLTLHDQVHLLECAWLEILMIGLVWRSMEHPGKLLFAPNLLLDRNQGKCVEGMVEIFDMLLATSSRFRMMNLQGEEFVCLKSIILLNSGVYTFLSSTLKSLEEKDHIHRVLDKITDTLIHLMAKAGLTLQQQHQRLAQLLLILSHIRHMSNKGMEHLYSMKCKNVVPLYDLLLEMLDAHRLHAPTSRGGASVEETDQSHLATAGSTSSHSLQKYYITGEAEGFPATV

Estrogen receptor beta [1] = molecular target: T2, Estrogen receptor beta (Homo sapiens, UniProt Q92731);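 further: recombinant ER-beta bound to coactivator SRC1 peptide in presence of estradiol agonist; inhibitors block coactivator peptide binding and lower the FRET signal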
[2] = molecular target: T3, Carboxy-terminal domain RNA polymerase II polypeptide A small phosphatase 1 (Homo sapiens, UniProt Q9GZU7); assay: CTDSP1 inhibitors, concentration-response, biochemical, absorbance readout, ultra-high-throughput screen actives (AID 540297); type: functional
T3 sequence (Q9GZU7 whole entry): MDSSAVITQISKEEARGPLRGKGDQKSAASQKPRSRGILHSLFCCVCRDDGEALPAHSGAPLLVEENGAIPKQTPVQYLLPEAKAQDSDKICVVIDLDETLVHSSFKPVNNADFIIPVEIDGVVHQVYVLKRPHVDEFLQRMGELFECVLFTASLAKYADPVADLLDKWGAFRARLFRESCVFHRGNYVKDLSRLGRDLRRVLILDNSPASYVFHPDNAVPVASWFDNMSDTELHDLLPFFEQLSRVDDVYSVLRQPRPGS

Estrogen receptor beta [3] = molecular target: T2, Estrogen receptor beta; assay: blockers of SRC-3 recruitment to ERβ – biochemical, ELISA, streptavidin-HRP readout, orthogonal assay, confirmation (AID 1060)
Bcl-2-like protein 10 = Bcl-2-like protein 10 (Homo sapiens, UniProt Q9HD36); assay: Bcl-B/TR3 peptide binding disruption – biochemical, fluorescence polarization, FITC-TR3 peptide, selectivity assay for Bfl-1 inhibitor project, primary screen (AID 748);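 further: fluorescence polarization from a fluorescein-labelled TR3 peptide binding purified Bcl-B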
[4] = molecular target: T4, Mannose-6-phosphate isomerase (Homo sapiens, UniProt P34949); assay: MPI enzyme activity inhibition – biochemical, fluorescence intensity, coupled assay, primary screen (AID 1209)
T4 sequence (P34949 whole entry): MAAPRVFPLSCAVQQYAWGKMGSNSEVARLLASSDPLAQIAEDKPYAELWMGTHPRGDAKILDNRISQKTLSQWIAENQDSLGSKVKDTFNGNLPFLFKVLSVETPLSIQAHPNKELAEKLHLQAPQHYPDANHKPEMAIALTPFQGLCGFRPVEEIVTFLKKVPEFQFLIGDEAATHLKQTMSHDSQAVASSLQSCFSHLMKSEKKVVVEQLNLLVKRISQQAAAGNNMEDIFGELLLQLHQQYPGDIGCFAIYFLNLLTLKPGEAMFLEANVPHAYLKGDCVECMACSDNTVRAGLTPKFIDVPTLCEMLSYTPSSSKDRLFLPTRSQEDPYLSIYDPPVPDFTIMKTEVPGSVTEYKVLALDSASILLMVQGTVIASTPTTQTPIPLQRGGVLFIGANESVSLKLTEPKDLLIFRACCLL

Galanin receptor type 2 = Galanin receptor type 2 (Homo sapiens, UniProt O43603); assay: Dose Response cell-based high-throughput screening assay to identify antagonists of galanin receptor 2 (GALR2). [Related pubchem assays: 828, 866 ]; type: functional
Beta-galactosidase = Beta-galactosidase (Escherichia coli, UniProt Q8VNN2); assay: detection-enzyme interference by beta-gal modulators – biochemical, E. coli enzyme, set 3, artefact control for CCR6 antagonist project, dose response (AID 504712); type: functional
[5] = microbe, parasite or virus in culture; type: functional; conditions: Mycobacterium tuberculosis
[6] = molecular target: T4, Mannose-6-phosphate isomerase; assay: MPI inhibition at elevated mannose 6-phosphate – biochemical, fluorescence intensity, high mannose 6-phosphate, primary screen (AID 1220)
[7] = molecular target: C-C chemokine receptor type 6 (Homo sapiens, UniProt P51684); assay: antagonism of CCR6 beta-arrestin recruitment – cell-based, luminescent beta-arrestin readout, dose response (AID 504728); type: functional
[8] = molecular target: T5, Heat shock factor protein 1 (Mus musculus, UniProt P38532); assay: enhancement of HSF1-driven luciferase signal – cell-based, NIH3T3, luminescence, dose retest, confirmation (AID 435004); type: functional;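 further: stress induced by proteasome inhibitor MG132 added 30 min after compound; luciferase reporter driven by HSF1 response element in NIH3T3 cells; actives raise luminescence as potentiators of the MG132 stress response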
T5 sequence (P38532 whole entry): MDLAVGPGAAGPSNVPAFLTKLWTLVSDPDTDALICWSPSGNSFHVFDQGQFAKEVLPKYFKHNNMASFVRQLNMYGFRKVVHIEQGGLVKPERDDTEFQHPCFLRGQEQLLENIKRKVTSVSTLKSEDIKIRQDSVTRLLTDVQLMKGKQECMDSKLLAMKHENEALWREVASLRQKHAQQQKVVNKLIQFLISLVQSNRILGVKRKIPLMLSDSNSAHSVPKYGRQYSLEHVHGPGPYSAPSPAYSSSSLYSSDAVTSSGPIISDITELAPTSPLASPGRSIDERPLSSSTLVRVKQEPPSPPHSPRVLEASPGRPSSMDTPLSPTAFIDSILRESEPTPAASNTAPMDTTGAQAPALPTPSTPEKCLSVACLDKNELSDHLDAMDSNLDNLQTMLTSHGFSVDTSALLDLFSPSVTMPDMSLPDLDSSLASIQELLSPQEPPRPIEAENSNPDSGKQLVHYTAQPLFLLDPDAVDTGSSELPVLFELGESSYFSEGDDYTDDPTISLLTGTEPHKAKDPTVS

[9] = molecular target: Lysosomal acid glucosylceramidase (Homo sapiens, UniProt P04062); assay: Dose response cell-based high throughput screening assay to identify enhancers of beta-glucosidase activity. [Related pubchem assays: 784 ]; type: functional
[10] = Cytotoxicity screening for potential Inhibitors of Bacterial Capsule Biogenesis. [Related pubchem assays (depositor defined):AID488970]; type: functional
[11] = molecular target: T5, Heat shock factor protein 1; assay: decrease of HSF1-responsive luciferase luminescence – cell-based, NIH3T3, dose retest, confirmation (AID 2382); type: functional;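 further: NIH3T3 fibroblasts with HSF1-driven luciferase reporter stressed by proteasome inhibitor MG132; luminescence from HSF1-driven luciferase expression after 8 hours of MG132 stress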
[12] = molecular target: T6, Microphthalmia-associated transcription factor (Homo sapiens, UniProt O75030); assay: reducers of TRPM1 reporter luminescence, concentration series – cell-based, SK-MEL-5, cherry-picked, set 3, MITF inhibitor project, dose response (AID 493073); type: functional;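 further: SK-MEL-5 melanoma cells with luciferase driven by the MITF target TRPM1 promoter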
T6 sequence (O75030 whole entry): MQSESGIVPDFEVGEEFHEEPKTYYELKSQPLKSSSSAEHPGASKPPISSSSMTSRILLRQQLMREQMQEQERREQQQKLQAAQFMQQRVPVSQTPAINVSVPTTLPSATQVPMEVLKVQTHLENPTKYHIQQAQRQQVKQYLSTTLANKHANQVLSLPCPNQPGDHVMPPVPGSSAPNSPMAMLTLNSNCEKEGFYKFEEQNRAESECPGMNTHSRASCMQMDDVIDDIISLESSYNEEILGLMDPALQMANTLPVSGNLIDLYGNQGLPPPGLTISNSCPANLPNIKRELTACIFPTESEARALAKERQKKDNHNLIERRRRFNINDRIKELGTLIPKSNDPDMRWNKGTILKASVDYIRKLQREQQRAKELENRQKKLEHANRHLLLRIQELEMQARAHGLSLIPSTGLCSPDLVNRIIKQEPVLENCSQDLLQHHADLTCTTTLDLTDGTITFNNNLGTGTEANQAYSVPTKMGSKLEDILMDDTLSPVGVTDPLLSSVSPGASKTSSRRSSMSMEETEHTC

HEK293 [13] = assay: Cytotoxicity assay in HEK293 cells. [Related pubchem assays (depositor defined):AID1266, AID1269, AID1270, AID1271, AID1280, AID1281, AID1282, AID1283, AID1287, AID1289, AID1290, AID1291, AID1292, AID1293, AID1294, AID1295, AID1299, AID1302, AID1364, AID1365, AID1366, AID1367, AID1369, AID1370, AID1371, AID1372, AID1373, AID1374, AID1375, AID1384 …; type: functional, cell-based; conditions: Homo sapiens
[14] = molecular target: T7, Luciferin 4-monooxygenase (Photinus pyralis, UniProt P08659); assay: In vitro luciferase assay using purified luciferase. [Related pubchem assays: 1299, 1270, 1295, 1375, 1287, 1281, 1293, 1291, 1289, 1280, 465, 1364, 1282, 1372, 1365, 1370, 1367, 1366, 1266, 1373, 1292, 1290, 1302, 1371, 1283, 1271, 1294, 1374, 1368, 1369 ]
HT-1080 = assay: HT1080 cell viability loss – fluorescence readout (AID 620); type: functional, cell-based; conditions: Homo sapiens
[15] = molecular target: T7, Luciferin 4-monooxygenase; assay: Counter Screen for Luciferase-based Assay Positives. [Related pubchem assays: 620, 618, 411 ]
HEK293 [16] = assay: PMA/Ionomycin induced NF-kB luciferase assay in 293- NF-kB-Luc stable cells. [Related pubchem assays: 1299, 1270, 1295, 1375, 1287, 1281, 1293, 1291, 1289, 1280, 465, 1364, 1282, 1372, 1365, 1370, 1367, 1366, 1269, 1373, 1292, 1290, 1302, 1371, 1283, 1271, 1294, 1374, 1368, 1369 ]; type: functional, cell-based; conditions: Homo sapiens
[17] = HEK-293T viability loss, compound-treated – cell-based, uHTS hits, cytotoxicity control for B/T-cell NF-kB inhibitor project, dose response (AID 489019); type: functional;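 further: IC50 reflects cytotoxicity as loss of cell viability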
Jurkat = assay: blockers of NF-kB activation in T cells – Jurkat, luciferase reporter, luminescence, B- and T-cell, dose response (AID 489004); type: functional, cell-based; conditions: Homo sapiens;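 further: NF-kB luciferase reporter Jurkat cells stimulated with PMA plus ionomycin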
X-box-binding protein 1 = X-box-binding protein 1 (Homo sapiens, UniProt P17861); type: functional, Cricetulus griseus;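 further: confirmatory dose-response counter-screen serving a CHOP assay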
HeLa = assay: viability loss in HeLa cells – cell-based, 24 h, cherry-picked samples, cytotoxicity control, dose response (AID 504726); type: functional; conditions: Homo sapiens;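 further: potency for cytotoxicity as loss of luminescence signal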
[18] = molecular target: T8, Eukaryotic translation initiation factor 2-alpha kinase 3 (Homo sapiens, UniProt Q9NZJ5); assay: Counterscreen assay for PERK inhibitors: Dose response cell-based high throughput screening assay to measure inhibition of PERK at 6 hours. [Related pubchem assays: 1522, 1416 ]; type: functional
[19] = molecular target: T8, Eukaryotic translation initiation factor 2-alpha kinase 3; assay: Dose response cell-based high-throughput screening assay to measure PERK inhibition. [Related pubchem assays: 1416 ]; type: functional

T7 sequence (P08659 whole entry): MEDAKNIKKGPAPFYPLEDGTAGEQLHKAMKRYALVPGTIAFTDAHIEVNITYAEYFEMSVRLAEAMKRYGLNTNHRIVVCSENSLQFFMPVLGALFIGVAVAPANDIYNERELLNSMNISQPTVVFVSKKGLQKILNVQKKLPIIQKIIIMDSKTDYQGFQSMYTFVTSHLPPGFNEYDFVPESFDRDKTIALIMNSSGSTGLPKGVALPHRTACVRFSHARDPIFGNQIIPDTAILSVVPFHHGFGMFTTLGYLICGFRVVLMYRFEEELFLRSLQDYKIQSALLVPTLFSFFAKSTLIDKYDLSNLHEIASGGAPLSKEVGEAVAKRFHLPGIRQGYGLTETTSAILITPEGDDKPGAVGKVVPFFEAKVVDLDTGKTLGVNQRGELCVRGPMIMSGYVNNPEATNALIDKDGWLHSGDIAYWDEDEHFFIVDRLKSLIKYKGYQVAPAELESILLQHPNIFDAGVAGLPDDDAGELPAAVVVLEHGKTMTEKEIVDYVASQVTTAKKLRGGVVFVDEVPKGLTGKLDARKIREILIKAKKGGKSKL
T8 sequence (Q9NZJ5 whole entry): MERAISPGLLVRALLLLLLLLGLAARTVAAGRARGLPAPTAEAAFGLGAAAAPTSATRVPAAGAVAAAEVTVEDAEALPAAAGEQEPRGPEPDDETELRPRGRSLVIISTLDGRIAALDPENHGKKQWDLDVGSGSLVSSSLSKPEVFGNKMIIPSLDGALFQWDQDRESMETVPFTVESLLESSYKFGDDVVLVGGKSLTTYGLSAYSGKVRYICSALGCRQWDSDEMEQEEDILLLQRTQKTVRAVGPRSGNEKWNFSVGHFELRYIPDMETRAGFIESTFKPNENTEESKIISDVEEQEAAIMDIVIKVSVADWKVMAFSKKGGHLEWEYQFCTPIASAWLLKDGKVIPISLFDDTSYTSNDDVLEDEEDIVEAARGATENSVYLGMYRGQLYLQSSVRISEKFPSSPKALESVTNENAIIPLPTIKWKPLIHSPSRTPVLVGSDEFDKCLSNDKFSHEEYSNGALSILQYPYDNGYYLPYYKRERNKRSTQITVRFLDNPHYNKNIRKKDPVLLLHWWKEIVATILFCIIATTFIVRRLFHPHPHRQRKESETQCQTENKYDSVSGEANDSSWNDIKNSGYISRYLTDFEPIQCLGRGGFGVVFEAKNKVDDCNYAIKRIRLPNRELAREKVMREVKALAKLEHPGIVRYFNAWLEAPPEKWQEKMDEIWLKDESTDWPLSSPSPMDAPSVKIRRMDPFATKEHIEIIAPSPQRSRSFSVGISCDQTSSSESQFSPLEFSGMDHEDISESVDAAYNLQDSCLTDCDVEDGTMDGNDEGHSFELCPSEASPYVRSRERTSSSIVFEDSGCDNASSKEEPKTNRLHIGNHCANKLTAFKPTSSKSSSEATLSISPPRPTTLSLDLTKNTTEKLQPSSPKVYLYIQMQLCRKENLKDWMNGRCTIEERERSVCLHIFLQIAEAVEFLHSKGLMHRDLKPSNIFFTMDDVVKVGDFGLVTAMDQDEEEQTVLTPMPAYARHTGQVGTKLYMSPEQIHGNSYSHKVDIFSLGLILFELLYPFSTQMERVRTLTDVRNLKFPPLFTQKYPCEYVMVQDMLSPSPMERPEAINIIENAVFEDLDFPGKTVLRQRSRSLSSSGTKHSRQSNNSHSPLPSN
T2 sequence (Q92731 whole entry, the tested form may be a part): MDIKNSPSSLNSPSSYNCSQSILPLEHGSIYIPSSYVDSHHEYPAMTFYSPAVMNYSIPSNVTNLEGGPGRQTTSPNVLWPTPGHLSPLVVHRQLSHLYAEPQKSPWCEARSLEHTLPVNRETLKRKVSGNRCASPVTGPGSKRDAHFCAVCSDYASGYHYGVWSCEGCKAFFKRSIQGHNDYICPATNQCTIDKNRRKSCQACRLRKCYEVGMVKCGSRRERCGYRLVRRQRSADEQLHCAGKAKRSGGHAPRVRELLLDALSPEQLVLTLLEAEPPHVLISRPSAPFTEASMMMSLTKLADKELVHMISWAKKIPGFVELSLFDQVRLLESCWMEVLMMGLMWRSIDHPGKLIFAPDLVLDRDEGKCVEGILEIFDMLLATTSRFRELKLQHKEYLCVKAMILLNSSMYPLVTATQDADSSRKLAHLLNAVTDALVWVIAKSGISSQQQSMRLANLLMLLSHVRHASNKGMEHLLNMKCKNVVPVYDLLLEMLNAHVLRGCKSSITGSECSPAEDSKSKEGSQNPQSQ
Chain of Galanin receptor type 2 (O43603 whole entry): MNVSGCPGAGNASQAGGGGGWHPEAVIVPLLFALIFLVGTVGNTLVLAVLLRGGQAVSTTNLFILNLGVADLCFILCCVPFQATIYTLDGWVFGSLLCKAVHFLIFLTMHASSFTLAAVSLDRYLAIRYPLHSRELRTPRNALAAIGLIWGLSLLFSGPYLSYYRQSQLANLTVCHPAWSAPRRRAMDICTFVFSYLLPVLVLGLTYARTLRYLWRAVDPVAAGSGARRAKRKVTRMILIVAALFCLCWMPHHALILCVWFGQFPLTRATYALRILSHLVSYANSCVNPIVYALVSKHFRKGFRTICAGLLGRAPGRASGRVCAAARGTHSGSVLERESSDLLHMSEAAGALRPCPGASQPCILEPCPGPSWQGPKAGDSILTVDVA
Chain of Lysosomal acid glucosylceramidase (P04062 whole entry): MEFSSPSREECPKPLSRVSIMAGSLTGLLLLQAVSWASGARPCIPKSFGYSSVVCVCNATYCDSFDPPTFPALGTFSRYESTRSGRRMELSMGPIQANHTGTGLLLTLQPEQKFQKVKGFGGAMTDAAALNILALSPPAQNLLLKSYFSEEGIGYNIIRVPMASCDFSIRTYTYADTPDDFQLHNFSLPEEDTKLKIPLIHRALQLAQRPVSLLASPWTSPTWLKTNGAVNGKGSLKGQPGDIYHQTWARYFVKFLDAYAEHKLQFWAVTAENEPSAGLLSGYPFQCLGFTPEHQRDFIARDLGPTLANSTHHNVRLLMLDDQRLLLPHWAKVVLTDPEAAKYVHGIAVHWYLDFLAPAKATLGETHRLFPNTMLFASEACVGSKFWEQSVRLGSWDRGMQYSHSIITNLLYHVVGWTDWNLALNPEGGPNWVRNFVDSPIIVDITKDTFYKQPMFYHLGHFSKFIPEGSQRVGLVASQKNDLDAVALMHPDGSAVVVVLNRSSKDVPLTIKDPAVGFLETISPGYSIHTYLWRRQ
Chain of X-box-binding protein 1 (P17861 whole entry): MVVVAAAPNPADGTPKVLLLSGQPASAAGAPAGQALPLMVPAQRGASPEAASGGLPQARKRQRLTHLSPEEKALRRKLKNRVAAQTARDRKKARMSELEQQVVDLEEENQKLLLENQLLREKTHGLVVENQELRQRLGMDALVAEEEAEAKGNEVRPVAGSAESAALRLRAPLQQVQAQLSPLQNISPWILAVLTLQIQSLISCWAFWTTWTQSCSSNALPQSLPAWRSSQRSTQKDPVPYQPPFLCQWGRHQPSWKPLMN
Chain of Beta-galactosidase (Q8VNN2 whole entry): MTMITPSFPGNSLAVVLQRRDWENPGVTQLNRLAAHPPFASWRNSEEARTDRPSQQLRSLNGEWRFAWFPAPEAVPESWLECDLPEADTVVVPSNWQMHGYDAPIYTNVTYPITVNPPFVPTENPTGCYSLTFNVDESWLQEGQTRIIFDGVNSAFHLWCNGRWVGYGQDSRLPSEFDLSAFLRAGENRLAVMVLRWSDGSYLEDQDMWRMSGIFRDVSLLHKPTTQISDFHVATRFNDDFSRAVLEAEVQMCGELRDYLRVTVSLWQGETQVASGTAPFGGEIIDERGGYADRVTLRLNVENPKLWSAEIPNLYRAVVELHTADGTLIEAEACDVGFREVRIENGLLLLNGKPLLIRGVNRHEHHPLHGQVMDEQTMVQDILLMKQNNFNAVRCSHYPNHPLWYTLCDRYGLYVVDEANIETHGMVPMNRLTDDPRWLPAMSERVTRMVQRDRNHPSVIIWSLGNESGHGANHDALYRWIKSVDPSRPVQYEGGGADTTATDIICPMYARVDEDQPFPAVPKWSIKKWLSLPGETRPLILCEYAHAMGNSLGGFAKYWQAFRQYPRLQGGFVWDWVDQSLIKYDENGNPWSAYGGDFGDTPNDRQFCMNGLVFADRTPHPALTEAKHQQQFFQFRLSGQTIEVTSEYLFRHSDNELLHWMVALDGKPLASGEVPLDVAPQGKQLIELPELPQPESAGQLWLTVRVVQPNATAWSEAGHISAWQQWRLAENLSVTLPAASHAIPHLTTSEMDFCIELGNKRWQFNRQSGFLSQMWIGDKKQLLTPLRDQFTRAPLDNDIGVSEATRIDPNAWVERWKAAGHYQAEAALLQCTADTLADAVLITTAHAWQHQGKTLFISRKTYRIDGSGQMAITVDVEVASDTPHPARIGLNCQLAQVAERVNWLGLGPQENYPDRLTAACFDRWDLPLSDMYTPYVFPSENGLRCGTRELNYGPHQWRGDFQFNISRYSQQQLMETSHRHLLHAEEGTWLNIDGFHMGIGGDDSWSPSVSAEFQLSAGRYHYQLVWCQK
Chain of Bcl-2-like protein 10 (Q9HD36 whole entry): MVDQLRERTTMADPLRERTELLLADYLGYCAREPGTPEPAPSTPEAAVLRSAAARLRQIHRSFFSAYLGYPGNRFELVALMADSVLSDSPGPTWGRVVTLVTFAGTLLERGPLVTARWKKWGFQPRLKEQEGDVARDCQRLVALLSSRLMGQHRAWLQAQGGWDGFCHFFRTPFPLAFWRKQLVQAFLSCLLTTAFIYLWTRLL
Chain of C-C chemokine receptor type 6 (P51684 whole entry): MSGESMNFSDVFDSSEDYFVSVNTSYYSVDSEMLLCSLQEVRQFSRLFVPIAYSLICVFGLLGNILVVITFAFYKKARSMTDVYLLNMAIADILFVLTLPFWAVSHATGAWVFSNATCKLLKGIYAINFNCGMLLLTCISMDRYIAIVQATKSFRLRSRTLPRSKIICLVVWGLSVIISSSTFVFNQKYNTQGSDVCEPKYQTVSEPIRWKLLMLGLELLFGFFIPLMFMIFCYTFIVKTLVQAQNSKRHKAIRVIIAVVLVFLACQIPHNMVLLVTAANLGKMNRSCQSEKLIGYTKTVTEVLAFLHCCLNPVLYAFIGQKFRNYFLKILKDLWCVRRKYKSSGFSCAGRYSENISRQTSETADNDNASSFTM

In the case of `COc1ccc2c(c1)c(=O)oc1cc(OCC(=O)NC3CCCCC3)ccc12`, the IC50 (Estrogen receptor) was 17.9 µM (active), the IC50 (Estrogen receptor beta [1]) was 7.51 µM (active) and the IC50 [2] was 6.74 µM (active). The IC50 (Estrogen receptor beta [3]) was > 50 µM (not active) and the IC50 (Bcl-2-like protein 10) was 34.6 µM (active).
For `O=[N+]([O-])c1cc(-c2ncccn2)c([N+](=O)[O-])s1`, the IC50 [4] was 6.92 µM (active), the IC50 (Galanin receptor type 2) was 8.96 µM (active) and the IC50 (Beta-galactosidase) was > 66.6 µM (inactive). The CC50 [5] was 23.2 µM (active), the IC50 [6] was 7.48 µM (active) and the IC50 [7] was 24 µM (inactive). For the same compound, the EC50 [8] was 6.64 µM (active).
In the case of `Cc1nc(SCC(=O)Nc2ccc3c(c2)OCCO3)c2oc3ccccc3c2n1`, the EC50 [9] was > 50 µM (not active).
With `Cc1cccc(C)c1NC(=O)C[N+](C)(C)CC(O)COc1cccc2ccccc12` (configuration not stated) the CC50 [10] was 22 µM (active).
In the case of `CC1CCN(c2nc3ccc(C(=O)O)cc3s2)CC1`, the EC50 [11] was 0.268 µM (active), the AC50 [12] was 1.25 µM (active) and the EC50 (HEK293 [13]) was 13.1 µM (inactive). For the same compound, the EC50 [14] was > 8 µM (not active), the EC50 (HT-1080) was > 50 µM (not active) and the EC50 [15] was 7.86 µM (active). The EC50 (HEK293 [16]) was 12.5 µM (not active), the IC50 [17] was > 80 µM (inactive) and the IC50 (Jurkat) was 1.82 µM (active).
For `Cc1cccc(/C=C/c2nc(O)c3ccccc3n2)c1`, the “Absolute IC50 (XBP1)” value (X-box-binding protein 1) was 10 µM.
For `COc1cccc(NC(=O)N(CCN(C)C)C(C)c2cccnc2)c1` (configuration not stated), the AC50 (HeLa) was 123 µM (active).
In the case of `O=C(N/N=C/c1ccncc1)c1ccccc1`, the EC50 [18] was > 55.7 µM (not active) and the EC50 [19] was > 55.7 µM (not active).
